Earlier results on 1 compound are cited in patent publication EP4066850A2, “PEPTIDES AND METHODS OF TREATING DYSTROPHY-RELATED DISORDERS USING THE SAME” (Bioincept LLC, priority 2017, dated 2018).

The conditions of the data set: IV infusion together with radiation; xerostomia treatment (Kouvaria et al 2007).

Turning to `NCCCNCCSP(=O)(O)O` [Amifostine], the side effects result is recorded as “serious side effects including fatal skin reaction”.
